The record followed here is US4259235A, “Tricyclic nitrogenous compounds having string plant growth regulating properties” (BASF Aktiengesellschaft, priority 1977, dated 1981).

Experiment [1] relates to spring barley. Briefly: Growth height of spring barley, soil treatment, Example 10. It is filed as in vivo, spring barley ("Union" variety). The procedure:
(§1) Spring wheat ("Opal" variety) and spring barley ("Union" variety) were grown under greenhouse conditions in plastic dishes 11.5 cm in diameter, in a peat substrate provided with sufficient nutrients. For the soil (preemergence) treatment, the active ingredients were poured, at two application rates, as aqueous formulations onto the surface of the substrate after sowing.
(§2) The plant height was measured at the end of the experiment. The figures obtained show the shortening effect of the active ingredients under investigation. The prior art compound β-chloroethylphosphonic acid (Ethephon, German Printed Application DAS No. 1,667,968) was used for comparison purposes.

Experiment [2] has as its system spring rye. The experiment in a line: Growth height of spring rye, leaf treatment, Example 11. It counts as in vivo, spring rye ("Petkuser" variety). As to the method: (§3) The test plants--spring wheat ("Opal" variety), spring barley ("Union" variety) and spring rye ("Petkuser" variety)--were grown under greenhouse conditions in plastic dishes 11.5 cm in diameter, in a peat substrate provided with sufficient nutrients.
(§4) Leaf treatment was effected by spraying the plants at a growth height of 11 cm with aqueous formulations of the active ingredients, at three application rates.
(§5) The shortening effect caused by the compounds was shown by measurements of the height of the plants at the end of the experiment.
(§6) The prior art compound N,N,N-trimethyl-N-β-chloroethylammonium chloride (CCC, German Printed Application DAS No. 1,294,734) was used for comparison purposes.

Experiment [3] has as its system spring wheat. Briefly: Growth height of spring wheat, leaf treatment, Example 10. It counts as in vivo, spring wheat ("Opal" variety). As to the method: as §1
(§7) Leaf treatment was effected by spraying the plants at a growth height of 10 cm with aqueous formulations of the active ingredients at two application rates.
as §2

For experiment [4], the system named is spring barley. Briefly: Growth height of spring barley, leaf treatment, Example 10. It counts as in vivo, spring barley ("Union" variety). As to the method: as §1, §7, §2
Experiment [5] has as its system spring barley. The experiment in a line: Growth height of spring barley, leaf treatment, Example 11. It counts as in vivo, spring barley ("Union" variety). As to the method: as §3, §4, §5, §6

`Cc1ccc(C2=NOC3C4CC(C5N=NC45)C23)cc1` (centres unmarked) [drawing 407]: the Plant height in experiment [1] (3 kg/ha) was found to be 25.0 cm; in experiment [1] (12 kg/ha) it was 21.0 cm. Moreover, the “Plant height, % of untreated control” value in experiment [1] (3 kg/ha) was 72.9%; in experiment [1] (12 kg/ha), 61.2%.

`Clc1ccc(NC2C(Cl)C3CC2C2N=NC32)cc1` (centres unmarked) [drawing 423]: the Plant height in experiment [2] (0.75 kg/ha) turned out to be 25.5 cm; in experiment [2] (1.50 kg/ha) it was 24.5 cm; in experiment [2] (3.00 kg/ha), 24.5 cm. The “Plant height, % of untreated control” value in experiment [2] (0.75 kg/ha) is recorded as 89.5%; in experiment [2] (1.50 kg/ha), 86.0%; in experiment [2] (3.00 kg/ha) it was 86.0%.

On to `Clc1ccc(C2N=NC3C4CC(C5N=NC45)C23)cc1` (centres unmarked) [drawing 404], for which the figures for the Plant height in experiment [1] (3 kg/ha) and in experiment [1] (12 kg/ha) were 22.0 cm and 20.0 cm, respectively. The results for the “Plant height, % of untreated control” value in experiment [1] (3 kg/ha) and in experiment [1] (12 kg/ha) were 64.1% and 58.3%, respectively.

Turning to `Clc1ccc(C2=NOC3C4CC(C5N=NC45)C23)cc1` (centres unmarked) [drawing 402], in experiment [3] (1.5 kg/ha), the Plant height is given as 29.0 cm and the “Plant height, % of untreated control” value was 88.4%. For the same molecule, in experiment [3] (6.0 kg/ha), the Plant height is 27.0 cm and the “Plant height, % of untreated control” value is on record as 82.3%.

For the molecule `Cc1ccc(C2=NOC3C4CC(C5N=NC45)C23)cc1` (centres unmarked) [drawing 401], the Plant height in experiment [3] (1.5 kg/ha) was 29.5 cm; in experiment [3] (6.0 kg/ha) it was 27.5 cm. The “Plant height, % of untreated control” value worked out at 89.9% in experiment [3] (1.5 kg/ha) and 83.3% in experiment [3] (6.0 kg/ha).

In the case of `Brc1ccc(C2=NOC3C4CC(C5N=NC45)C23)cc1` (centres unmarked) [drawing 411], the Plant height in experiment [4] (1.5 kg/ha) was determined as 25.5 cm; in experiment [4] (6.0 kg/ha), 25.0 cm. The figures for the “Plant height, % of untreated control” value in experiment [4] (1.5 kg/ha) and in experiment [4] (6.0 kg/ha) were 91.1% and 89.3%, respectively.

Turning to `Clc1ccc(C2N=NC3C4CC(C5N=NC45)C23)cc1` (centres unmarked) [drawing 398], in experiment [3] (1.5 kg/ha), the Plant height was found to be 23.5 cm and the “Plant height, % of untreated control” value came to 71.6%. In addition, in experiment [3] (6.0 kg/ha), the Plant height is 22.0 cm and the “Plant height, % of untreated control” value is reported as 67.1%.

`Clc1ccc(C2=NOC3C4CC(C5N=NC45)C23)cc1` (centres unmarked) [drawing 414]: in experiment [4] (1.5 kg/ha), the Plant height amounted to 26.0 cm and the “Plant height, % of untreated control” value came to 92.9%. In experiment [4] (6.0 kg/ha), the Plant height was found to be 24.5 cm and the “Plant height, % of untreated control” value stood at 87.5%.

In the case of `FC(F)(F)c1cccc(NC2C(I)C3CC2C2N=NC32)c1` (centres unmarked) [drawing 403], in experiment [3] (1.5 kg/ha), the Plant height is reported as 27.5 cm and the “Plant height, % of untreated control” value is 83.3%. In experiment [3] (6.0 kg/ha), the Plant height is listed as 25.5 cm and the “Plant height, % of untreated control” value is given as 77.7%.

Take `Brc1ccc(C2=NOC3C4CC(C5N=NC45)C23)cc1` (centres unmarked) [drawing 405]: in experiment [1] (3 kg/ha), the Plant height came out at 28.0 cm and the “Plant height, % of untreated control” value is listed as 81.6%. Further, in experiment [1] (12 kg/ha), the Plant height is 26.0 cm and the “Plant height, % of untreated control” value came out at 75.8%.

Turning to `Clc1ccc(C2=NOC3C4CC(C5N=NC45)C23)cc1` (centres unmarked) [drawing 409], in experiment [1] (3 kg/ha), the Plant height was 26.0 cm and the “Plant height, % of untreated control” value was found to be 75.8%. Moreover, in experiment [1] (12 kg/ha), the Plant height was 24.0 cm and the “Plant height, % of untreated control” value worked out at 70.0%.

In the case of `c1ccc(C2N=NC3C4CC(C5N=NC45)C23)cc1` (centres unmarked) [drawing 418], the Plant height in experiment [5] (0.75 kg/ha) turned out to be 23.5 cm; in experiment [5] (1.50 kg/ha), 23.0 cm; in experiment [5] (3.00 kg/ha), 21.5 cm. Besides, the entries for the “Plant height, % of untreated control” value in experiment [5] (0.75 kg/ha), in experiment [5] (1.50 kg/ha) and in experiment [5] (3.00 kg/ha) were 84.5%, 82.7% and 77.3%, respectively.

Regarding `Brc1ccc(C2=NOC3C4CC(C5N=NC45)C23)cc1` (centres unmarked) [drawing 399], the Plant height was determined as 29.0 cm in experiment [3] (1.5 kg/ha) and 27.5 cm in experiment [3] (6.0 kg/ha). Further, the “Plant height, % of untreated control” value in experiment [3] (1.5 kg/ha) turned out to be 88.4%; in experiment [3] (6.0 kg/ha), 83.8%.
